Tests used:
[1] = system: high fructose diet fed Sprague Dawley rats; test: Rat High Fructose Model with Fast/Re-Feed; assay type: in vivo
Description: Another standard model of human hyperlipidemia and insulin resistance is the rat fed a high fructose diet for several weeks (33). Additionally, since hepatic lipid synthesis is known to be regulated by food consumption, the fast/reefed cycle of Horton et al. (32) was incorporated into the chronic high fructose diet model. A compound disclosed above was evaluated in this model as an agent to restore insulin sensitivity and lower blood lipids.
Eight week old male Sprague Dawley rats were purchased from Harlan, Inc. The rats weighed 200-225 g upon arrival and were divided into groups as detailed in Table 2 and were immediately placed on a high fructose diet (60% kcal fructose; Open Source Diet #D00111301) ad libitum for three weeks. During the last week of feeding the high fructose diet, the rats were dosed with vehicle (5% solutol, 8% β cyclo-dextrin), subject compound at 30 mg/kg or 100 mg/kg or the control compound at 30 mg/kg by oral gavage once daily for 7 days. On the final day, all animals were placed on a […] followed by a 12 hour re-feed period on the high fructose diet ad libitum. Body weights were monitored throughout the protocol. After completing the fast or fast/re-feed conditions, the rats were given avertin for anesthesia by intraperitoneal administration. Whole blood was collected by cardiac puncture and the rats were terminated by cervical dislocation. Livers were collected surgically, weighed and immediately frozen in liquid nitrogen. The blood was placed in Li-heparin treated tubes, centrifuged to collect plasma and the plasma frozen.
The plasma was analyzed by standard colorimetric assays for glucose, insulin, triglycerides and cholesterol.

[2] = system: high fat diet fed C57Bl6 mice; test: Mouse High Fat Dietary Model with fast/re-feed; assay type: in vivo; conditions: for reduced body weight vs Vehicle: fast/re-feed
Description: A standard model of human hyperlipidemia and insulin resistance is the mouse fed a high fat diet for several weeks (31, 33). Additionally, since hepatic lipid synthesis is known to be regulated by food consumption, the fast/re-feed cycle of Horton et al. (32) was incorporated into the chronic high fat diet model. The compound was evaluated in this model as an agent to restore insulin sensitivity and lower blood lipids. The chronic high fat diet was fed to mice to simulate a standard Western diet which is elevated in calories from high fat and carbohydrate intake. This and similar models of dietary induced obesity, insulin insensitivity and elevated serum lipids and cholesterol are used as mouse and rat models of human pathology including hyperlipidemia, type II diabetes, atherosclerosis, obesity, cardiovascular and liver disease. These models have been used as excellent predictors of efficacy in human clinical trials (PPAR and FXR agonists).
The farnesoid X receptor (FXR) is a ligand-activated transcription factor and a member of the nuclear receptor superfamily. […] While the mechanism of action of FXR agonists is clearly distinct from PASK inhibition, WAY-362450 has been used as a positive control compound producing physiologically beneficial changes in glucose and lipid metabolism resembling inhibition of PASK. Throughout these in vivo assays, WAY-362450 has been used as a control compound, and will be referred to as such.
Male C57Bl6 mice were obtained from Jackson Laboratories and had been fed a high fat diet (60% kcal fat) for eight weeks. The mice were fed an identical high fat diet (Research Diet D12492) upon arrival and during the study. All mice were treated with the subject compound at 30 or 100 mg/kg, control compound (WAY-362450) at 30 mg/kg or vehicle by oral gavage daily for three days. On the final day, 10 animals from each group began an 24 hour fast and then were sacrificed (fasted groups 1a,2a,3a,4a). Alternatively, 10 animals from each group underwent a 24 hour fast followed by a 12 hour re-feed period with the same high fat diet ad libitum and then were sacrificed (re-fed groups 1b,2b,3b,4b).
Body weights were monitored at the start and end of the protocol. After completing the fast or fast/re-feed conditions, the mice were given avertin for anesthesia by intraperitoneal administration. Whole blood was collected by cardiac puncture and the mice were terminated by cervical dislocation. Livers were collected surgically, weighed and immediately frozen in liquid nitrogen. The blood was placed in Li-heparin treated tubes, centrifuged to collect plasma and the plasma frozen.
The plasma was analyzed by standard colorimetric assays for glucose, insulin, triglycerides and cholesterol. Frozen liver samples were pulverized and extracted in ethanolic KOH and analyzed for liver triglycerides and cholesterol.

[3] = 30 mg/kg oral once daily for 7 days
[4] = fast and re-feed, 30 mg/kg for 7 days
[5] = 100 mg/kg oral once daily for 7 days
[6] = fast and re-feed, 100 mg/kg for 7 days

For `CC(C)OC(=O)C1=CN(C(=O)c2ccc(F)c(F)c2)CC(C)(C)c2c1[nH]c1ccccc21` [control compound, WAY-362450, reference compound], the “body weight relative to the Vehicle group (FIG. 1)” value [1, 3] was “significant increase in body weight”, the “increase in liver weight” value [1, 3] was “about 2 g” and the increased liver weights [1, 3] was “about 15%”. For the same compound, the “effect on plasma glucose concentrations” value [1, 4] was “did not alter plasma glucose concentrations” and the “effects on liver weight” value ([2]; 30 mg/kg oral daily for three days) was “identical to those of the subject compound at the same dose”.

For `CC(C)N(C)c1nc2cc(C(=O)O)ccc2nc1-c1ccc(F)cc1` [subject compound], the “body weight relative to the Vehicle group (FIG. 1)” value [1, 3] was “modest increase in body weight”, the “body weight relative to the Vehicle group (FIG. 1)” value [1, 5] was “modest decrease in body weight” and the “maximal reduction in liver weight” value [1, 5] was “about 4%”. The “decrease in plasma glucose vs vehicle” value [1, 4] was 21.5%, the “insulin levels reduced vs vehicle” value [1, 4] was 15.4% and the “plasma cholesterol decreased vs vehicle” value [1, 4] was 5.7%. The “decrease in plasma glucose vs vehicle” value [1, 6] was 26.3%, the “insulin levels reduced vs vehicle” value [1, 6] was 31.4% and the “plasma cholesterol decreased vs vehicle” value [1, 6] was 10%. The “reductions in liver weights” value ([2]; 30 and 100 mg/kg oral daily for three days) was 7-9%, the “decreased plasma glucose vs vehicle” value ([2]; fast and re-feed, 100 mg/kg (highest dose)) was “up to 21%” and the “reduced body weight vs Vehicle” value ([2]; 30 mg/kg oral gavage daily for three days) was 2.7%. For the same compound, the “reduced body weight vs Vehicle” value ([2]; 100 mg/kg oral gavage daily for three days) was 5.1%, the “decreased plasma insulin vs vehicle” value ([2]; fasted and re-fed, 30 mg/kg) was 10% and the “decreased plasma insulin vs vehicle” value ([2]; fasted and re-fed, 100 mg/kg) was 28%. For the same compound, the “decreased plasma glucose vs vehicle” value ([2]; fasted only, 30 mg/kg) was 30%, the “decreased body weight vs Vehicle Fasted” value ([2]; fasted only, 30 mg/kg oral daily for three days) was 1.8% and the “decreased plasma glucose vs vehicle” value ([2]; fasted only, 100 mg/kg) was 43%. For the same compound, the “decreased body weight vs Vehicle Fasted” value ([2]; fasted only, 100 mg/kg oral daily for three days) was 5.1% and the “decreased plasma insulin vs vehicle” value ([2]; fasted only, 30 and 100 mg/kg) was “up to 26%”.

Source: patent US11459307B2, “Heterocyclic compounds for the inhibition of PASK” (BioEnergenix LLC, priority 2009, dated 2022)
